Assay results as given in PubChem BioAssay (NCI).
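Protocol summary: plate cells (96-well), add compound at 5 concentrations, incubate 48 h, interpolate endpoints linearly. TGI is the concentration that stops growth completely.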

Tests used:
Test in all cases: DTP human tumour cell line panel, 48 h
[1] = test system: A498 renal
[2] = test system: A549 NSCLC
[3] = test system: ACHN renal
[4] = test system: CAKI-1 renal
[5] = test system: CCRF-CEM leukemia
[6] = test system: COLO 205 colon
[7] = test system: DLD-1 colon
[8] = test system: DMS 114 small cell lung
[9] = test system: DMS 273 small cell lung
[10] = test system: EKVX NSCLC
[11] = test system: HCC-2998 colon
[12] = test system: HCT-116 colon
[13] = test system: HCT-15 colon
[14] = test system: HL-60(TB) leukemia
[15] = test system: HOP-18 NSCLC
[16] = test system: HOP-62 NSCLC
[17] = test system: HOP-92 NSCLC
[18] = test system: HT29 colon
[19] = test system: IGROV1 ovarian
[20] = test system: K-562 leukemia
[21] = test system: KM12 colon
[22] = test system: KM20L2 colon
[23] = test system: LOX IMVI melanoma
[24] = test system: LXFL 529 NSCLC
[25] = test system: M14 melanoma
[26] = test system: MALME-3M melanoma
[27] = test system: MOLT-4 leukemia
[28] = test system: NCI-H226 lung
[29] = test system: NCI-H23 lung
[30] = test system: NCI-H460 lung
[31] = test system: NCI-H522 lung
[32] = test system: OVCAR-3 ovarian
[33] = test system: OVCAR-4 ovarian
[34] = test system: OVCAR-5 ovarian
[35] = test system: OVCAR-8 ovarian
[36] = test system: RPMI-8226 leukemia
[37] = test system: RXF 393 renal
[38] = test system: SF-268 CNS
[39] = test system: SF-295 CNS
[40] = test system: SF-539 CNS
[41] = test system: SK-MEL-2 melanoma
[42] = test system: SK-MEL-28 melanoma
[43] = test system: SK-MEL-5 melanoma
[44] = test system: SK-OV-3 ovarian
[45] = test system: SN12C renal
[46] = test system: SNB-19 CNS
[47] = test system: SNB-75 CNS
[48] = test system: SNB-78 CNS
[49] = test system: SR leukemia
[50] = test system: SW-620 colon
[51] = test system: TK-10 renal
[52] = test system: U251 CNS
[53] = test system: UACC-257 melanoma
[54] = test system: UACC-62 melanoma
[55] = test system: UO-31 renal
[56] = test system: XF 498 CNS
[57] = test system: 786-0 renal
[58] = test system: M19-MEL melanoma
[59] = test system: RXF-631 renal

For `CC1=C(C(=O)NCc2ccccc2)C(c2ccco2)C(C(=O)NCc2ccccc2)=C(C)N1`, the TGI [1] was > 100 µM, the TGI [2] was > 100 µM and the TGI [3] was > 100 µM. For the same compound, the TGI [4] was > 100 µM, the TGI [5] was > 100 µM and the TGI [6] was > 100 µM. The TGI [7] was > 100 µM, the TGI [8] was > 100 µM and the TGI [9] was > 100 µM. The TGI [10] was > 100 µM, the TGI [11] was > 100 µM and the TGI [12] was > 100 µM. For the same compound, the TGI [13] was > 100 µM, the TGI [14] was > 100 µM and the TGI [15] was > 100 µM. The TGI [16] was > 100 µM, the TGI [17] was > 100 µM and the TGI [18] was > 100 µM. For the same compound, the TGI [19] was > 100 µM, the TGI [20] was > 100 µM and the TGI [21] was > 100 µM. For the same compound, the TGI [22] was > 100 µM, the TGI [23] was > 100 µM and the TGI [24] was > 100 µM. The TGI [25] was > 100 µM, the TGI [26] was > 100 µM and the TGI [27] was > 100 µM. The TGI [28] was > 100 µM, the TGI [29] was > 100 µM and the TGI [30] was > 100 µM. The TGI [31] was > 100 µM, the TGI [32] was > 100 µM and the TGI [33] was > 100 µM. For the same compound, the TGI [34] was > 100 µM, the TGI [35] was > 100 µM and the TGI [36] was > 100 µM. The TGI [37] was > 100 µM, the TGI [38] was > 100 µM and the TGI [39] was > 100 µM. The TGI [40] was > 100 µM, the TGI [41] was 92.6 µM and the TGI [42] was > 100 µM. For the same compound, the TGI [43] was > 100 µM, the TGI [44] was > 100 µM and the TGI [45] was > 100 µM. For the same compound, the TGI [46] was > 100 µM, the TGI [47] was > 100 µM and the TGI [48] was > 100 µM. For the same compound, the TGI [49] was > 100 µM, the TGI [50] was > 100 µM and the TGI [51] was > 100 µM. The TGI [52] was > 100 µM, the TGI [53] was > 100 µM and the TGI [54] was 50.6 µM. The TGI [55] was > 100 µM and the TGI [56] was > 100 µM.

In the case of `CN1C/C(=C\c2ccc(C(=O)O)cc2)C(=O)/C(=C/c2ccc(C(=O)O)cc2)C1`, the TGI [57] is reported as > 100 µM, the TGI [1] is reported as > 100 µM and the TGI [2] is reported as > 100 µM. The TGI [3] was > 100 µM, the TGI [4] was > 100 µM and the TGI [5] was > 100 µM. The TGI [6] was > 100 µM, the TGI [7] was > 100 µM and the TGI [8] was > 100 µM. For the same compound, the TGI [9] was > 100 µM, the TGI [10] was > 100 µM and the TGI [11] was > 100 µM. For the same compound, the TGI [12] was > 100 µM, the TGI [13] was > 100 µM and the TGI [14] was > 100 µM. The TGI [15] was > 100 µM, the TGI [16] was > 100 µM and the TGI [17] was > 100 µM. For the same compound, the TGI [18] was > 100 µM, the TGI [19] was > 100 µM and the TGI [20] was > 100 µM. For the same compound, the TGI [21] was > 100 µM, the TGI [22] was > 100 µM and the TGI [23] was > 100 µM. The TGI [24] was > 100 µM, the TGI [25] was > 100 µM and the TGI [58] was > 100 µM. For the same compound, the TGI [26] was > 100 µM, the TGI [27] was > 100 µM and the TGI [28] was > 100 µM. For the same compound, the TGI [29] was > 100 µM, the TGI [30] was > 100 µM and the TGI [32] was > 100 µM. The TGI [33] was > 100 µM, the TGI [34] was > 100 µM and the TGI [35] was > 100 µM. For the same compound, the TGI [36] was > 100 µM, the TGI [37] was > 100 µM and the TGI [59] was > 100 µM. The TGI [38] was > 100 µM, the TGI [39] was > 100 µM and the TGI [40] was > 100 µM. For the same compound, the TGI [41] was > 100 µM, the TGI [42] was > 100 µM and the TGI [43] was > 100 µM. For the same compound, the TGI [44] was > 100 µM, the TGI [45] was > 100 µM and the TGI [47] was > 100 µM. For the same compound, the TGI [48] was > 100 µM, the TGI [49] was > 100 µM and the TGI [50] was > 100 µM. For the same compound, the TGI [51] was > 100 µM, the TGI [52] was > 100 µM and the TGI [53] was > 100 µM. The TGI [54] was > 100 µM, the TGI [55] was > 100 µM and the TGI [56] was > 100 µM.

`C=CCO[C@H]1CC[C@@]2(C)C(CC[C@]3(C)C2CC=C2[C@@H]4[C@@H](C)C(C)CC[C@]4(C(=O)O)CCC23C)C1(C)C` (stereo partly specified) was tested, and the TGI [57] was 30.6 µM, the TGI [1] was 32.4 µM and the TGI [2] was 32.7 µM. For the same compound, the TGI [3] was 29.8 µM, the TGI [4] was 33.2 µM and the TGI [5] was 28.9 µM. The TGI [6] was 32.4 µM, the TGI [7] was 32.1 µM and the TGI [8] was 32.1 µM. It also gave a TGI [10] of 38.1 µM, a TGI [11] of 32.4 µM and a TGI [12] of 25.5 µM. For the same compound, the TGI [14] was 22 µM, the TGI [15] was 37.1 µM and the TGI [16] was 41 µM. For the same compound, the TGI [17] was 32.4 µM, the TGI [18] was 31.6 µM and the TGI [19] was 33.9 µM. It also gave a TGI [20] of 28.6 µM, a TGI [21] of 30.5 µM and a TGI [22] of 33.2 µM. The TGI [23] was 27.2 µM, the TGI [24] was 26.9 µM and the TGI [25] was 34.6 µM. It also gave a TGI [58] of 35.7 µM, a TGI [26] of 38.4 µM and a TGI [28] of 39.6 µM. For the same compound, the TGI [29] was 28.9 µM, the TGI [30] was 36.3 µM and the TGI [31] was 28.4 µM. It also gave a TGI [32] of 29.8 µM, a TGI [33] of 39.3 µM and a TGI [35] of 36.6 µM. The TGI [37] was 22.8 µM, the TGI [59] was 28.9 µM and the TGI [38] was 40.5 µM. It also gave a TGI [39] of 27.5 µM, a TGI [40] of 34.1 µM and a TGI [42] of 29.5 µM. It also gave a TGI [43] of 31.8 µM, a TGI [44] of 31.7 µM and a TGI [45] of 27.1 µM. For the same compound, the TGI [46] was 32.2 µM, the TGI [47] was 30.2 µM and the TGI [48] was 35.4 µM. It also gave a TGI [49] of 36.2 µM, a TGI [50] of 35.4 µM and a TGI [51] of 32.2 µM. For the same compound, the TGI [52] was 30.3 µM, the TGI [53] was 32.3 µM and the TGI [54] was 28.3 µM. For the same compound, the TGI [55] was 31.2 µM and the TGI [56] was 20.2 µM.
